In patent US20210355115A1, “ISOXAZOLE CARBOXAMIDE COMPOUNDS AND USES THEREOF” (Novartis AG, priority 2018, published 2021) one finds maximal fold induction data, which are given here for 34 compounds.

For this assay, the system named is Atoh1. As to the kind of experiment: Atoh1 induction assay in mouse cerebellar neural precursor cells (Atoh1-GFP reporter assay). It is filed as cell-based. The note with it: maximum fold difference over DMSO control (=1), cerebellar NPCs from Atoh1-GFP mice, 10 doses 50 μM to 200 nM, 72 hours treatment, read-out: Fold Difference (ratio of Atoh1-GFP average intensity_FC to DMSO_Max). How it is done:
Atoh1 induction assay was conducted with in vitro cultured cerebellar neural precursor cells isolated from neonatal transgenic Atoh1-GFP mice. Atoh1 expression is mainly regulated by the enhancer, and the nuclear GFP was driven by the cloned enhancer sequence at 3′ of Atoh1 which had high conservation among mammalians So Atoh1 induction could be reflected by GFP activation in cerebellar neural precursor cells (Helms et al., Development 2000; 127: 1185-1196; Lumpkin et al., Gene Expression Patterns 2003; 3: 389-395). Postnatal 3 days pups were dissected for cerebellum tissue isolation. The cerebellum tissue was cut into small pieces, and dissociated with 0.05% Trypsin for about 10 minutes at 37° C., and then filtered with a 70 uM cell strainer. The cells were cultured as neuropsheres for the first 2 days in ultra-low attachment dish/well-plate with DMEM/F12+1% N2 &2% B27 with 1% P/S, 20 ng/ml rhFGF2 and 20 ng/ml rhEGF (R&D Systems). Then the spheres were plated to the matrigel (1:30 diluted in DMEM/F12)-coated tissue culture dish for monolayer culture. After 4.5-5.5 days culture in vitro (DIV), cells were dissociated with 0.05% trypsin into single cells, and frozen after cell number calculation.
The cerebellar neural precursor cells (NPCs) were re-thawed from stock and cultured for another 2 days before used for Atoh1 induction assay. On the first day of assay, NPCs were seeded into matrigel-coated 384 well plates (Black view-plate, PE) at 2500 cells/well. After over-night culture, the NPCs were treated with representative compounds of the present disclosure with 1:2 serial dilutions for 10 doses, from 50 μM to 200 nM, with DMSO as negative control. After 72 hours treatment without medium change, the cells were fixed with 4% formalin for staining Assay plates were stained with GFP antibody (Abcam, #13970, 1:1000) to amplify endogenous GFP signal and then read by Cellomics. […] Table 1 Atoh1 activation by treatment of Compounds of the present disclosure (Atoh1-GFP reporter assay in cerebellar NPCs)
In general terms: Reporter assays use an easily measured gene product as a stand-in for the process of interest.
As to `N#C[C@H]1CCN(CCCCCNC(=O)c2cc(-c3ccc(F)cc3)on2)C[C@H]1O` (single isomer, unassigned) [Example 2], the maximal fold induction amounted to 11.5.

Consider `NC(=O)[C@@H]1CCN(CCCCCNC(=O)c2cc(-c3cccs3)on2)C[C@@H]1O` (stereo in doubt) [Example 30, N-(5-(4-carbamoyl-3-hydroxypiperidin-1-yl)pentyl)-5-(thiophen-2-yl)isoxazole-3-carboxamide], for which the maximal fold induction is 16.1.

Consider `N#C[C@@H]1CN(CCCCCNC(=O)c2cc(-c3cccs3)on2)C[C@@H]1O` [34 cis], for which the maximal fold induction amounted to 11.2.

On to `NC(=O)[C@H](O)CN1CCN(CCCCCNC(=O)c2cc(-c3cccs3)on2)CC1` [37 R], for which the maximal fold induction was 29.2.

In the case of `NC(=O)[C@@H](O)CN1CCN(CCCCCNC(=O)c2cc(-c3cccs3)on2)CC1` [37 S], the maximal fold induction came to 31.5.

Regarding `N#C[C@@H]1CN(CCCCCNC(=O)c2cc(-c3cccs3)on2)CC[C@@H]1C(N)=O` [Example 1, N-(5-((3S,4S)-4-carbamoyl-3-cyanopiperidin-1-yl)pentyl)-5-(thiophen-2-yl)isoxazole-3-carboxamide], the maximal fold induction was determined as 12.7.

For `O=C(NCCCCCN1CC(S(=O)(=O)NC2COC2)C1)c1cc(-c2cccs2)on1` [Example 3, N-(5-(3-(N-(oxetan-3-yl)sulfamoyl)azetidin-1-yl)pentyl)-5-(thiophen-2-yl)isoxazole-3-carboxamide], the maximal fold induction came to 11.2.

In the case of `N#CCCNS(=O)(=O)C1CN(CCCCCNC(=O)c2cc(-c3cccs3)on2)C1` [Example 4, N-(5-(3-(N-(2-cyanoethyl)sulfamoyl)azetidin-1-yl)pentyl)-5-(thiophen-2-yl)isoxazole-3-carboxamide], the maximal fold induction was found to be 18.3.

Regarding `CNC(=O)COC(=O)NC1CN(CCCCCNC(=O)c2cc(-c3cccs3)on2)C1` [Example 5], the maximal fold induction was 17.2.

On to `NS(=O)(=O)C1CCCN(CCCCCNC(=O)c2cc(-c3cccs3)on2)C1` (stereo not shown) [Example 6, N-(5-(3-sulfamoylpiperidin-1-yl)pentyl)-5-(thiophen-2-yl)isoxazole-3-carboxamide], for which the maximal fold induction turned out to be 20.1.

With `NS(=O)(=O)C1CCN(CCCCCNC(=O)c2cc(-c3cccs3)on2)C1` (stereo not shown) [Example 7, N-(5-(3-sulfamoylpyrrolidin-1-yl)pentyl)-5-(thiophen-2-yl)isoxazole-3-carboxamide], the maximal fold induction stood at 17.2.

Consider `NC(=O)C1CCN(CCCCCNC(=O)c2cc(-c3ccc(F)cc3)on2)C1` (stereo not shown) [Example 8, N-(5-(3-carbamoylpyrrolidin-1-yl)pentyl)-5-(4-fluorophenyl)isoxazole-3-carboxamide], for which the maximal fold induction is 14.6.

Turning to `NC(=O)C1(CO)CN(CCCCCNC(=O)c2cc(-c3cccs3)on2)C1` [Example 9, N-(5-(3-carbamoyl-3-(hydroxymethyl)azetidin-1-yl)pentyl)-5-(thiophen-2-yl)isoxazole-3-carboxamide], the maximal fold induction amounted to 24.4.

As to `NC(=O)C1(CO)CN(CCCCCNC(=O)c2cc(-c3ccc(F)cc3)on2)C1` [Example 10, N-(5-(3-carbamoyl-3-(hydroxymethyl)azetidin-1-yl)pentyl)-5-(4-fluorophenyl)isoxazole-3-carboxamide], the maximal fold induction was 19.1.

Turning to `CC1(C(N)=O)CN(CCCCCNC(=O)c2cc(-c3cccs3)on2)C1` [Example 11, N-(5-(3-carbamoyl-3-methylazetidin-1-yl)pentyl)-5-(thiophen-2-yl)isoxazole-3-carboxamide], the maximal fold induction turned out to be 33.3.

Turning to `CC1(C(N)=O)CN(CCCCCNC(=O)c2cc(-c3ccc(F)cc3)on2)C1` [Example 12, N-(5-(3-carbamoyl-3-methylazetidin-1-yl)pentyl)-5-(4-fluorophenyl)isoxazole-3-carboxamide], the maximal fold induction turned out to be 22.4.

In the case of `NC(=O)C1CN(CCCCCNC(=O)c2cc(-c3cccs3)on2)CC1O` (stereo not shown) [Example 13, N-(5-(3-carbamoyl-4-hydroxypyrrolidin-1-yl)pentyl)-5-(thiophen-2-yl)isoxazole-3-carboxamide], the maximal fold induction stood at 32.5.

With `NS(=O)(=O)C1CCN(CCCCCNC(=O)c2cc(-c3cccs3)on2)CC1` [Example 14, N-(5-(4-sulfamoylpiperidin-1-yl)pentyl)-5-(thiophen-2-yl)isoxazole-3-carboxamide], the maximal fold induction came to 23.8.

Consider `NS(=O)(=O)C1CCN(CCCCCNC(=O)c2cc(-c3ccc(F)cc3)on2)CC1` [Example 15, 5-(4-fluorophenyl)-N-(5-(4-sulfamoylpiperidin-1-yl)pentyl)isoxazole-3-carboxamide], for which the maximal fold induction came out at 18.9.

Regarding `N#C[C@H]1CCN(CCCCCNC(=O)c2cc(-c3cccs3)on2)C[C@@H]1O` [Example 16, N-(5-((3R,4R)-4-cyano-3-hydroxypiperidin-1-yl)pentyl)-5-(thiophen-2-yl)isoxazole-3-carboxamide], the maximal fold induction was determined as 32.3.

As to `NC(=O)CCN1CCN(CCCCCNC(=O)c2cc(-c3cccs3)on2)CC1` [Example 17, N-(5-(4-(3-amino-3-oxopropyl)piperazin-1-yl)pentyl)-5-(thiophen-2-yl)isoxazole-3-carboxamide], the maximal fold induction came out at 20.4.

Take `NS(=O)(=O)CCN1CCN(CCCCCNC(=O)c2cc(-c3cccs3)on2)CC1` [Example 19, N-(5-(4-(2-sulfamoylethyl)piperazin-1-yl)pentyl)-5-(thiophen-2-yl)isoxazole-3-carboxamide]: the maximal fold induction came to 16.3.

Consider `NC(=O)C1CCN(CCCCCNC(=O)c2cc(-c3cccs3)on2)CC1` [Example 20, N-(5-(4-cathamoylpiperidin-1-yl)pentyl)-5-(thiophen-2-yl)isoxazole-3-carboxamide], for which the maximal fold induction was determined as 14.7.

As for `NC(=O)C1(O)CN(CCCCCNC(=O)c2cc(-c3cccs3)on2)C1` [Example 21, N-(5-(3-carbamoyl-3-hydroxyazetidin-1-yl)pentyl)-5-(thiophen-2-yl)isoxazole-3-carboxamide], the maximal fold induction was 20.8.

`CNC(=O)C1CN(CCCCCNC(=O)c2cc(-c3ccc(F)s3)on2)C1` [Example 22, 5-(5-fluorothiophen-2-yl)-N-(5-(3-(methylcarbamoyl)azetidin-1-yl)pentyl)isoxazole-3-carboxamide]: the maximal fold induction was 16.8.

Regarding `NC(=O)C1CN(CCCCCNC(=O)c2cc(-c3ccc(F)s3)on2)C1` [Example 23, N-(5-(3-carbamoylazetidin-1-yl)pentyl)-5-(5-fluorothiophen-2-yl)isoxazole-3-carboxamide], the maximal fold induction was 24.3.

On to `CC(C#N)NC(=O)C1CN(CCCCCNC(=O)c2cc(-c3ccc(F)cc3)on2)C1` (stereo not shown) [Example 24, N-(5-(3-((1-cyanoethyl)carbamoyl)azetidin-1-yl)pentyl)-5-(4-fluorophenyl)isoxazole-3-carboxamide], for which the maximal fold induction was found to be 18.3.

For the compound `CN1CCN(CCCCCNC(=O)c2cc(-c3cccs3)on2)CC1C(N)=O` (stereo not shown) [Example 25, N-(5-(3-carbamoyl-4-methylpiperazin-1-yl)pentyl)-5-(thiophen-2-yl)isoxazole-3-carboxamide], the maximal fold induction stood at 13.1.

Consider `NC(=O)C1(O)CCN(CCCCCNC(=O)c2cc(-c3cccs3)on2)CC1` [Example 26, N-(5-(4-carbamoyl-4-hydroxypiperidin-1-yl)pentyl)-5-(thiophen-2-yl)isoxazole-3-carboxamide], for which the maximal fold induction worked out at 16.3.

As for `O=C(NCCCCCN1CC(C(=O)N[C@H]2CCC[C@H]2O)C1)c1cc(-c2ccc(F)cc2)on1` [Example 27, 5-(4-fluorophenyl)-N-(5-(3-(((1S,2R)-2-hydroxycyclopentyl)carbamoyl)azetidin-1-yl)pentyl)isoxazole-3-carboxamide], the maximal fold induction turned out to be 13.5.

As for `NC(=O)[C@@H]1CCN(CCCCCNC(=O)c2cc(-c3cccs3)on2)C[C@@H]1F` [Example 28-cis, N-(5-((3R,4S)-4-carbamoyl-3-fluoropiperidin-1-yl)pentyl)-5-(thiophen-2-yl)isoxazole-3-carboxamide], the maximal fold induction was found to be 11.9.

Take `NC(=O)[C@@H]1CCN(CCCCCNC(=O)c2cc(-c3cccs3)on2)C[C@H]1F` [Example 28-trans, N-(5-((3S,4S)-4-carbamoyl-3-fluoropiperidin-1-yl)pentyl)-5-(thiophen-2-yl)isoxazole-3-carboxamide]: the maximal fold induction turned out to be 16.8.

`N#C[C@H]1CCN(CCCCCNC(=O)c2cc(-c3cccs3)on2)C[C@@H]1C(N)=O` [Example 29, N-(5-((3R,4S)-3-carbamoyl-4-cyanopiperidin-1-yl)pentyl)-5-(thiophen-2-yl)isoxazole-3-carboxamide]: the maximal fold induction is 15.4.

Take `NC(=O)C1CCN(CCCCCNC(=O)c2cc(-c3ccc(F)cc3)on2)CC1O` (stereo not shown) [Example 31, N-(5-(4-carbamoyl-3-hydroxypiperidin-1-yl)pentyl)-5-(4-fluorophenyl)isoxazole-3-carboxamide]: the maximal fold induction worked out at 14.7.
